Data as given in US4029688A, “Carbamic pesticidal compositions” (priority 1974, dated 1977).
Values after ≈ are worked out from the molar mass of the structure shown.

Assays:
Assay type in all cases: in vivo
[1] = test system: house flies (Musca domestica, L.); experiment: Fly Bait Test; parameters: key to Fly: C: no control; B: partial control; A: excellent control; conditions: for LC50: Musca domestica, Table II, read-out: Housefly LD50; for Fly: bait, 500 parts per million, twenty-four hours
Experimental: (§1) Suspensions of the test compounds were prepared by dissolving one gram of compound in 50 milliliters of acetone in which had been dissolved 0.1 gram (10 percent of the weight of compound) of an alkylphenoxy polyethoxyethanol surfactant, as an emulsifying or dispersing agent. The resulting solution was mixed into 150 milliliters of water to give roughly 200 milliliters of a suspension containing the compound in finely divided form. The thus-prepared stock suspension contained 0.5 percent by weight of compound. The test concentrations in parts per million by weight employed in the tests described hereinbelow were obtained by appropriate dilutions of the stock suspension with water. The test procedures were as follows:
Four to six day old adult house flies (Musca domestica, L.), reared according to the specifications of the Chemical Specialties Manufacturing Association (Blue Book, McNair-Dorland Co., N. Y. 1954; pages 243-244, 261) under controlled conditions of 80°±5° F. and 50±5 percent relative humidity, were the test insects. The flies were immobilized by anesthetizing with carbon dioxide and twenty-five immobilized individuals, males and females, were transferred to a cage consisting of a standard food strainer about five inches in diameter which was inverted over a wrapping-paper-covered surface. The test compounds were formulated by diluting the stock suspension with a 10 percent (by weight) sugar solution to give a suspension containing 500 parts of test compound per million parts of final formulation, by weight. Ten milliliters of the test formulation were added to a souffle cup containing a one-inch square of an absorbent cotton pad. This bait cup was introduced and centered on the blotting paper under the food strainer prior to admitting the anesthetized flies. The caged flies were allowed to feed on the bait for twenty-four hours, at a temperature of 80°±5° F. and the relative humidity of 50±5 percent.
(§2) In the tests described above, the pesticidal activity of the compounds against aphid, mite, Southern Armyworm, Bean Beetle, house fly and nematode was rated as follows:
(§3) Comparison tests were conducted to assess the biological and chemical properties of certain representative species of the claimed invention in relation to their corresponding N-methyl carbamate compositions. The test procedures described above were employed in these experiments in order to determine the LD50 (number of parts per million of active ingredients required to achieve fifty percent mortality of the insects tested) for each of the compositions tested. In the case of the aphid and mite tests a side by side comparison was made of the N-methyl carbamate composition versus the corresponding perhalomethylsulfenyl derivative.

[2] = test system: bean aphid (Aphis fabae Scop.); experiment: Bean Aphid Foliage Spray Test; parameters: key to Aphid: C: no control; B: partial control; A: excellent control; conditions: for LC50: Aphis fabae, foliar, Table II, side by side comparison, read-out: Aphids LD50; for Aphid: foliage spray, 500 parts per million, 24 hour
Experimental: as §1
Adults and nymphal stages of the bean aphid (Aphis fabae Scop.) reared on potted dwarf nasturtium plants at 65°-70° F. and 50-70 percent relative humidity, constituted the test insects. For testing purposes, the number of aphids per pot was standardized to 100-150 by trimming plants containing excess aphids.
The test compounds were formulated by diluting the stock suspension with water to give a suspension containing 500 parts of test compound per million parts of final formulation.
The potted plants (one pot per compound tested) infested with 100-150 aphids, were placed on a revolving turntable and sprayed with 100-110 milliliters of test compound formulation by use of a DeVilbiss spray gun set at 40 psig. air pressure. This application, which lasted 25 seconds, was sufficient to wet the plants to run-off. As a control, 100-110 milliliters of a water-acetone-emulsifier solution containing no test compound were also sprayed on infested plants. After spraying, the pots were placed on their sides on a sheet of white standard mimeograph paper which had been previously ruled to facilitate counting. Temperature and humidity in the test room during the 24 hour holding period were 65°-70° F. and 50-70 percent, respectively. Aphids which fell onto the paper and were unable to remain standing after being uprighted were considered dead. Aphids remaining on the plants were observed closely for movement and those which were unable to move the length of the body upon stimulation by prodding were considered dead. Percent mortality was recorded for various concentration levels.
as §2, §3

[3] = test system: two-spotted mite (Tetranychus urticae Koch); experiment: Mite Foliage Spray Test; parameters: key to Mite (Spray): C: no control; B: partial control; A: excellent control; conditions: for LC50: Tetranychus urticae, foliar, Table II, side by side comparison, read-out: Mites Spray LD50; for Mite (Spray): foliage spray, 500 parts per million, six days
Experimental: as §1
(§4) Adults and numphal stages of the two-spotted mite (Tetranychus urticae Koch), reared on Tendergreen bean plants at 80±5 percent relative humidity, were the test organisms. Infested leaves from a stock culture were placed on the primary leaves of two bean plants six to eight inches in height, growing in a 21/2 inch clay pot. 150 -200 Mites, a sufficient number for testing, transferred from the excised leaves to the fresh plants in a period of twenty-four hours. Following the twenty-four hour transfer period, the excised leaves were removed from the infested plants. The test compounds were formulated by diluting the stock suspension with water to give a suspension containing 500 parts of test compound per million parts of final formulation. The potted plants (one pot per compound) were placed on a revolving turntable and sprayed with 100-110 milliliters of test compound formulation by use of a DeVilbiss spray gun set at 40 psig. air pressure. This application, which lasted 25 seconds, was sufficient to wet the plants to run-off. As a control, 100-110 milliliters of a water solution containing acetone and emulsifier in the same concentrations as the test compound formulation, but containing no test compound, were also sprayed on infested plants. The sprayed plants were held at 80±5 percent relative humidity for six days, after which a mortality count of motile forms was made. Microscopic examination for motile forms was made on the leaves of the test plants. Any individual which was capable of locomotion upon prodding was considered living.
as §2, §3

[4] = test system: two-spotted mite (Tetranychus urticae Koch); experiment: Mite Systemic Test; parameters: key: C: no control; B: partial control; A: excellent control; conditions: soil drench, 20 milliliters of test formulation
Experimental: as §1, §4
Systemic treatments were made by drenching 20 milliliters of the test compound formulation into the soil around the roots of bean plants growing in 21/2 inch clay pots. These pots were held in 4 ounce wax paper containers to prevent cross-contamination and loss by leaching. The plants were 4 inches high at the time of treatment and had been infested with mites 24 hours previously. Subsequent steps for testing of the systemic miticidal activity were the same as those described above for the spray method of application.
In the tests described above, the pesticidal activity of the compounds against aphid, mite, Southern Armyworm, Bean Beetle, house fly and nematode was rated as follows: […]

Compound | LC50 [1] [µg/mL] | Fly [1] | LC50 [2] [µg/mL] | Aphid [2] | LC50 [3] [µg/mL] | Mite (Spray) [3] | Mite (Systemic) [4]
CC(=NOC(=O)N(C)SC(Cl)(Cl)Cl)SCCC#N [1-(2-Cyanoethylthio)acetaldehyde O-(N-methyl-N-trichloromethanesulfenylcarbamoyl)oxime] | 3 (≈ 8.55 µM) | A | 10 (≈ 28.5 µM) | A | 22 (≈ 62.7 µM) | A | –
CCOC(=O)C(C)SC(C)(C)C=NOC(=O)N(C)SC(Cl)(Cl)Cl (centres unmarked) | – | C | – | A | – | B | B
CCOC(=O)CSC(C)(C)C=NOC(=O)N(C)SC(Cl)(Cl)Cl | – | C | – | A | – | C | C
CCOC(=O)CCSC(C)=NOC(=O)N(C)SC(Cl)(Cl)Cl | – | B | – | B | – | C | C
CN(SC(Cl)(Cl)Cl)C(=O)ON=CC(C)(C)C#N [2-Methyl-2-cyanopropionaldehyde O-(N-methyl-N-trichloromethanesulfenylcarbamoyl)oxime] | 7 (≈ 22 µM) | A | 23 (≈ 72.2 µM) | A | 23 (≈ 72.2 µM) | A | A
CN(SC(Cl)(Cl)Cl)C(=O)ON=CC(C)(C)[S+](C)[O-] (centres unmarked) [2-Methyl-2-methylsulfinylpropionaldehyde O-(N-methyl-N-trichloromethanesulfenylcarbamoyl)oxime] | – | A | – | A | – | A | A
CN(SC(Cl)(Cl)Cl)C(=O)ON=CC(C)(C)S(C)(=O)=O [2-Methyl-2-methylsulfonylpropionaldehyde O-(N-methyl-N-trichloromethanesulfenylcarbamoyl)oxime] | – | A | – | A | – | A | C
CC(=NOC(=O)N(C)SC(Cl)(Cl)Cl)C(C)(C)C#N | – | A | – | A | – | A | A
CSCC(=NOC(=O)N(C)SC(Cl)(Cl)Cl)C(C)(C)C | – | B | – | A | – | A | A
CSC(=NOC(=O)N(C)SC(Cl)(Cl)Cl)C(C)(SC)SC | – | A | – | A | – | A | B
CC(=NOC(=O)N(C)SC(Cl)(Cl)Cl)C(C)(C)N=[N+]=[N-] | – | A | – | A | – | C | C
CSCC(C)=NOC(=O)N(C)SC(Cl)(Cl)Cl | – | A | – | B | – | C | C
CCOC(=O)CSC(C)=NOC(=O)N(C)SC(Cl)(Cl)Cl | – | C | – | C | – | C | C
CN(SC(Cl)(Cl)Cl)C(=O)ON=CC(C)(C)[N+](=O)[O-] [2-Methyl-2-nitropropionaldehyde O-(N-methyl-N-trichloromethanesulfenylcarbamoyl)oxime] | 5 (≈ 14.8 µM) | A | 6 (≈ 17.7 µM) | A | 40 (≈ 118 µM) | A | A
CN(SC(F)(F)F)C(=O)ON=CC(C)(C)C#N [drawing 12] | – | A | – | A | – | A | –
CC(CSC(C)(C)C)=NOC(=O)N(C)SC(Cl)(Cl)Cl | – | C | – | A | – | C | C
COC(C)(C)C(Cl)=NOC(=O)N(C)SC(Cl)(Cl)Cl | – | A | – | A | – | A | A
CC(=NOC(=O)N(C)SC(Cl)(Cl)Cl)C(C)(C)[N+](=O)[O-] | – | A | – | A | – | A | A
CC(C[N+](=O)[O-])=NOC(=O)N(C)SC(Cl)(Cl)Cl | – | A | – | C | – | C | C
